# Read-outs that look alike come from different tables or passages of the source. Where a SMILES comes first, the peptide text is derived from it. Bridges are numbered along the chain shown (N, C = ends). [ ]: non-standard residue; d: D form. The star is where a group is joined. hPhe(3,5-F2-4-CF3) = N[C@@H](CCc1cc(F)c(C(F)(F)F)c(F)c1)C(=O)O; hPhe(3-Cl-4-CF3) = N[C@@H](CCc1ccc(C(F)(F)F)c(Cl)c1)C(=O)O; NPrPhe(4-CF3) = CCCN[C@@H](Cc1ccc(C(F)(F)F)cc1)C(=O)O; NMeGly(cPent) = CN[C@H](C(=O)O)C1CCCC1; Pro(4S-Me) = C[C@@H]1CN[C@H](C(=O)O)C1; NMeD = CN[C@@H](CC(=O)O)C(=O)O; NMeL = CN[C@@H](CC(C)C)C(=O)O; Morpholide = C1CN(*)CCO1; Ac5c = NC1(C(=O)O)CCCC1; Aze = O=C(O)[C@@H]1CCN1; Sar = CNCC(=O)O
# How the values were obtained:
# [1] = molecular target: HRAS wild-type protein (Homo sapiens, UniProt P01112); experiment: Binding to HRAS by surface plasmon resonance (SPR), KD and KD ratio to KRAS
# Chain of HRAS wild-type protein (P01112 whole entry): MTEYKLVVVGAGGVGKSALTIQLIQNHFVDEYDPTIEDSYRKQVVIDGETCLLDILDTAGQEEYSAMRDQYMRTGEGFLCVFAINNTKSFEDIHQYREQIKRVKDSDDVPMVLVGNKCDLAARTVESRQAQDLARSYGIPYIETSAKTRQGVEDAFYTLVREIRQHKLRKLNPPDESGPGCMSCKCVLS
# In short: (§1)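 Single-cycle kinetics on GDP-loaded biotin-Avi RAS captured to ~100–300 RU; 75 s ascending injections, 100 µL/min, 30°C. HBS pH 7.4 + 10 mM MgCl2/10 µM GDP/4% DMSO. 1:1 fit, KD.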
# [2] = molecular target: GDP-bound NRAS wild-type protein (Homo sapiens, UniProt P01111); experiment: Binding to NRAS by surface plasmon resonance (SPR), KD and KD ratio to KRAS
# Chain of GDP-bound NRAS wild-type protein (P01111 whole entry): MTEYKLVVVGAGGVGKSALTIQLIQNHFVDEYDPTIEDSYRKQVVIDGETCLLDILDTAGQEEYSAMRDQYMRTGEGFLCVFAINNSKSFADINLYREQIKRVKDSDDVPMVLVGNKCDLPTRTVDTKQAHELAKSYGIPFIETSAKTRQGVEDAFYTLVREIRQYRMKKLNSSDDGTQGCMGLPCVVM
# In short: as §1
# [3] = test system: human lung cancer strain NCI-H441; type: cell-based
# In short: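 Proliferation was scored by […] measured after the reagent was added to cultures kept at 37°C in 5% carbon dioxide.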
# [4] = ratio of KD value for HRAS wild-type protein to KD value for KRAS (SPR)
# [5] = ratio of KD value for GDP-bound NRAS wild-type protein to KD value for KRAS (SPR)
# [6] = ratio of KD for HRAS wild-type protein to KD for KRAS
# [7] = ratio of KD for GDP-bound NRAS wild-type protein to KD for KRAS
# [8] = ratio of the KD value with respect to HRAS wild-type protein to the KD value with respect to KRAS
# [9] = ratio of the KD value with respect to GDP-bound NRAS wild-type protein to the KD value with respect to KRAS
IC50 [3],SMILES,"HRAS /KRAS [1, 4]","NRAS /KRAS [2, 5]","HRAS /KRAS [1, 6]","NRAS /KRAS [2, 7]","IC50 ([3]; NCI-H441 cells, 4 days, CellTiter-Glo, read-out: NCl-H441 IC50)","HRAS /KRAS [1, 8]","NRAS /KRAS [2, 9]"
98.7 nM,CC[C@H](C)[C@@H]1NC(=O)[C@H](CC(C)C)N(C)C(=O)C[C@@H](C(=O)N(C)C)N(C)C(=O)[C@H](C2CCCC2)N(C)C(=O)C2(CC(C)(C)C2)NC(=O)CN(C)C(=O)[C@H](CCc2cc(F)c(C(F)(F)F)c(F)c2)NC(=O)CN(C)C(=O)[C@H](Cc2ccc(C(F)(F)F)cc2)N2CC/C=C\C[C@@H](C2=O)N(C)C(=O)CN(C)C1=O [PP1776],A (a compound having 10 or more and less than 20 is denoted as A),A (a compound having 10 or more and less than 20 is denoted as A),–,–,–,–,–
86.2 nM,CCO[C@@H]1C[C@H]2C(=O)NC3(CCCC3)C(=O)N(C)[C@@H](C3CCCC3)C(=O)N(C)[C@H](C(=O)N(C)C)CC(=O)N(C)[C@@H](CC(C)C)C(=O)N[C@@H]([C@@H](C)CC)C(=O)N(C)CC(=O)N(C)[C@H]3CC(C)=CCN(C3=O)[C@@H](Cc3ccc(C(F)(F)F)cc3)C(=O)N(C)CC(=O)N[C@@H](CCc3cc(F)c(C(F)(F)F)c(F)c3)C(=O)N2C1 [PP1031],–,–,C (A compound having a KD ratio of 0.1 or more and less than 3 is denoted as C),C (A compound having a KD ratio of 0.1 or more and less than 3 is denoted as C),–,–,–
13.3 nM,CCCN(C)C(=O)[C@@H]1CC(=O)N(C)[C@@H](COC)C(=O)N[C@@H]([C@@H](C)CC)C(=O)N(C)CC(=O)N(C)[C@H]2C/C=C\CCN(C2=O)[C@@H](Cc2ccc(C(F)(F)F)cc2)C(=O)N(C)CC(=O)N[C@@H](CCc2cc(F)c(Cl)c(F)c2)C(=O)N2C[C@H](OCC)C[C@H]2C(=O)NC2(CC(C)(C)C2)C(=O)N(C)[C@@H](C2CCCC2)C(=O)N1C [PP1763],A (a compound having 10 or more and less than 20 is denoted as A),A (a compound having 10 or more and less than 20 is denoted as A),–,–,–,–,–
12.4 nM,CC[C@H](C)[C@@H]1NC(=O)[C@H](CC)N(C)C(=O)C[C@@H](C(=O)N(C)CC)N(C)C(=O)[C@H](C2CCCC2)N(C)C(=O)C2(CC(C)(C)C2)NC(=O)[C@@H]2C[C@@H](C)CN2C(=O)[C@H](CCc2ccc(C(F)(F)F)c(OC)c2)NC(=O)CN(C)C(=O)[C@H](Cc2ccc(C)cc2)N2CC/C=C\C[C@@H](C2=O)N(C)C(=O)CN(C)C1=O [PP1870],A (a compound having 10 or more and less than 20 is denoted as A),A (a compound having 10 or more and less than 20 is denoted as A),–,–,–,–,–
30.4 nM,CCO[C@@H]1C[C@H]2C(=O)NC3(CC(C)(C)C3)C(=O)N(C)[C@@H](C3CCCC3)C(=O)N(C)[C@H](C(=O)N(C)CC)CC(=O)N(C)[C@@H]([C@@H](C)OC)C(=O)N[C@@H]([C@@H](C)CC)C(=O)N(C3CC3)CC(=O)N(C)[C@H]3C/C=C\CCN(C3=O)[C@@H](Cc3ccc(C)cc3)C(=O)N(C)CC(=O)N[C@@H](CCc3cc(F)c(C(F)(F)F)c(F)c3)C(=O)N2C1 [PP3184],–,–,A (a compound having 10 or more and less than 20 is denoted as A),A (a compound having 10 or more and less than 20 is denoted as A),–,–,–
9.8 nM,CC[C@H](C)[C@@H]1NC(=O)[C@H](CC(C)C)N(C)C(=O)C[C@@H](C(=O)N(C)C)N(C)C(=O)[C@H](C2CCCC2)N(C)C(=O)C2(CCCC2)NC(=O)[C@@H]2C[C@H](C)CN2C(=O)[C@H](CCc2cc(F)c(C(F)(F)F)c(F)c2)NC(=O)CN(C)C(=O)[C@H](Cc2ccc(C(F)(F)F)cc2)N2CC/C=C\C[C@@H](C2=O)N(C)C(=O)CN(C)C1=O [PP2268],–,–,–,–,–,A (a compound having 10 or more and less than 20 is denoted as A),A (a compound having 10 or more and less than 20 is denoted as A)
13.3 nM,CCOC[C@H]1C(=O)N[C@@H]([C@@H](C)CC)C(=O)N(C)CC(=O)N(C)[C@H]2C/C=C\CCN(C2=O)[C@@H](Cc2ccc(C(F)(F)F)cc2)C(=O)N(C)CC(=O)N[C@@H](CCc2ccc(C(F)(F)F)c(OC)c2)C(=O)N2C[C@@H](C)C[C@H]2C(=O)NC2(CC(C)(C)C2)C(=O)N(C)[C@@H](C2CCCC2)C(=O)N(C)[C@H](C(=O)N(C)CC)CC(=O)N1C [PP1993],–,–,–,–,–,A (a compound having 10 or more and less than 20 is denoted as A),A (a compound having 10 or more and less than 20 is denoted as A)

# Second part, the compound before the results:
SMILES,IC50 [3],"HRAS /KRAS [1, 4]","NRAS /KRAS [2, 5]","HRAS /KRAS [1, 6]","NRAS /KRAS [2, 7]","IC50 ([3]; NCI-H441 cells, 4 days, CellTiter-Glo, read-out: NCl-H441 IC50)","HRAS /KRAS [1, 8]","NRAS /KRAS [2, 9]"
CCOC[C@H]1C(=O)N[C@@H]([C@@H](C)CC)C(=O)N(C)CC(=O)N(C)[C@H]2C/C=C\CCN(C2=O)[C@@H](Cc2ccc(C)cc2F)C(=O)N(C)CC(=O)N[C@@H](CCc2ccc(C(F)(F)F)c(OC)c2)C(=O)N2C[C@@H](C)C[C@H]2C(=O)NC2(CC(C)(C)C2)C(=O)N(C)[C@@H](C2CCCC2)C(=O)N(C)[C@H](C(=O)N(C)CC)CC(=O)N1C [PP2697],–,–,–,A (a compound having 10 or more and less than 20 is denoted as A),A (a compound having 10 or more and less than 20 is denoted as A),42.8 nM,–,–
CCO[C@@H]1C[C@H]2C(=O)NC3(CCC3)C(=O)N(C)[C@@H](C3CCCC3)C(=O)N(C)[C@H](C(=O)N(C)C)CC(=O)N(C)[C@@H](CC)C(=O)N[C@@H]([C@@H](C)CC)C(=O)N(C)CC(=O)N(C)[C@H]3CCCCCN(C3=O)[C@@H](Cc3ccc(F)cc3OC)C(=O)N(C)CC(=O)N[C@@H](CCc3cc(F)c(C(F)(F)F)c(F)c3)C(=O)N2C1 [PP0914],40.2 nM,–,–,B (a compound having 3 or more and less than 10 is denoted as B),B (a compound having 3 or more and less than 10 is denoted as B),–,–,–
CCCN1C(=O)CN(C)C(=O)CN(C)C(=O)[C@H]([C@@H](C)CC)NC(=O)[C@H](CC(C)C)N(C)C(=O)C[C@@H](C(=O)N2CCOCC2)N(C)C(=O)[C@H](C2CCCC2)N(C)C(=O)C2(CCCC2)NC(=O)[C@@H]2C[C@H](C)CN2C(=O)[C@H](CCc2ccc(C(F)(F)F)c(Cl)c2)NC(=O)CN(C)C(=O)[C@@H]1Cc1ccc(C(F)(F)F)cc1 [PP0447] ([NMeL]I[Sar][Sar][NPrPhe(4-CF3)][Sar][hPhe(3-Cl-4-CF3)][Pro(4S-Me)][Ac5c][NMeGly(cPent)][NMeD]-Morpholide; lactam N-11),3.9 nM,–,–,–,–,–,C (A compound having a KD ratio of 0.1 or more and less than 3 is denoted as C),B (a compound having 3 or more and less than 10 is denoted as B)
CC[C@H](C)[C@@H]1NC(=O)[C@H](COC)N(C)C(=O)C[C@@H](C(=O)N2CCOCC2)N(C)C(=O)[C@H](C2CCCC2)N(C)C(=O)C2(CCCC2)NC(=O)[C@@H]2C[C@H](O)CN2C(=O)[C@H](CCc2cc(F)c(C(F)(F)F)c(F)c2)NC(=O)CN(C)C(=O)[C@H](Cc2ccc(C(F)(F)F)cc2)N2CCCCC[C@@H](C2=O)N(C)C(=O)CN(C)C1=O [PP0847],136 nM,–,–,B (a compound having 3 or more and less than 10 is denoted as B),B (a compound having 3 or more and less than 10 is denoted as B),–,–,–
"CCCN1C(=O)[C@@H]2CCN2C(=O)CN(C)C(=O)[C@H]([C@@H](C)CC)NC(=O)[C@H](CC(C)C)N(C)C(=O)C[C@@H](C(=O)N2CCOCC2)N(C)C(=O)[C@H](C2CCCC2)N(C)C(=O)C2(CCCC2)NC(=O)[C@@H]2CCCN2C(=O)[C@H](CCc2cc(F)c(C(F)(F)F)c(F)c2)NC(=O)CN(C)C(=O)[C@@H]1Cc1ccc(C(F)(F)F)cc1 [PP0789] ([NMeL]I[Sar][Aze][NPrPhe(4-CF3)][Sar][hPhe(3,5-F2-4-CF3)]P[Ac5c][NMeGly(cPent)][NMeD]-Morpholide; lactam N-11)",12.5 nM,–,–,B (a compound having 3 or more and less than 10 is denoted as B),C (A compound having a KD ratio of 0.1 or more and less than 3 is denoted as C),–,–,–
